Measured values reported in patent publication US20230364204A1, “Bioactive Peptides, Compositions, Production Process, and Use of Bioactive Peptides as Anti-Tumoral Agents” (priority 2022, published 2023).

Tests used:
MDAMB231 cells [1] = experiment: MTT with or without autophagy inhibitor 3-methyladenine (3-MA); type: cell-based
Protocol: The 3-Methyladenine (3-MA) is an autophagy inhibitor (blocks the activation of this mechanism of action). For molecules that trigger autophagy as a cell death mechanism when this pathway is blocked the molecule loses action.
The MTT method was carried out as previously described herein, comparing the effect of 3-NAntC with or without 3-Methyladenine (3-MA).
In order to determine the effects of the peptide in LDH release, autophagy induction and apoptosis/necrosis profile of MDAMB231 cell line, the Analysis of Variance (ANOVA) with Dunnet and Bonferroni post-hoc tests were applied to the significance of 5% in GraphPad Prism software version 6.0.

[2] = tested on: MDAMB231 cells (triple negative); experiment: MTT cell viability, tumor cells; type: cell-based
Protocol: (§1) For the method of MTT, the cells were plated in 96-well sterile plates for cell culture with a cap at the density of 2 × 10^4 cells/well for treatments lasting 24 h and 1 × 10^4 cells/well for treatments lasting 48 h or more, completing the volume to 100 µL with culture medium. The plates were incubated for 8-16 h in an incubator at 37° C. and 5% CO2. The next day, the treatments were prepared in culture medium, applying 200 µL/well at the desired concentration, and the plates were placed in an incubator at 37° C. and 5% CO2for the duration of treatment. After the treatment period, 20 µL/well of a MTT solution was added in PBS (1×) at a concentration of 5 mg/mL, and the dye was incubated at 37° C. and 5% CO2 for 2.5 h. After incubation with MTT, Formazan salts were solubilized with the addition of 200 µL of dimethylsulfoxide solution (DMSO): isopropanol (3:1) and agitated for at least 15 minutes at room temperature. After complete dissolution of the salts, the absorbance was read in a spectrophotometer at 570 nm with endpoint protocol.
(§2) The calculation of cell viability was performed using the formula: […]
(§3) O.D.: optical density captured by spectrophotometer
NOTE: The Basal O.D. is the one found in the blank wells.
In order to determine the efficacy (comparison of doses and times for the MDAMB231 cell line) and safety (comparison between the effects on MDAMB231 and HDFa cells) of the peptide SEQ ID 1 - MFYPDSRCRGPSET (C-terminal region of Crotoxin B), named 3-NAntC, the Analysis of Variance (ANOVA) with Bonferroni post-hoc test was applied to the significance of 5% in GraphPad Prism software version 6.0.

[3] = tested on: benign skin cells - fibroblasts (HDFa); experiment: MTT cell viability, benign fibroblasts; type: cell-based; conditions: HDFa fibroblasts, 24, 48 and 72 h
Protocol: as §1, §2, §3
NOTE: The Basal O.D. is the one found in the blank wells. […]

[4] = tested on: Triple negative breast tumor cells (MDAMB231); experiment: Observation of triple negative breast tumor cells after treatment (FIG. 3/4); type: cell-based; conditions: MDAMB231, treated for 24 h
Protocol: FIG. 3 illustrates the untreated triple negative tumor cells, presented in large numbers.
FIG. 4 illustrates the tumor cells after being treated with the peptide 3-NantC (SEQ ID 1) for 24h. The arrows indicate the tumor cells, which are shown in smaller numbers and with vesicles when compared with the untreated tumor cells.

MDAMB231 cells [5] = experiment: BrdU cellular proliferation, tumor cells; type: cell-based; conditions: MDAMB231, 24 h, 0.2 µg/mL (minimum decrease)
Protocol: (§4) The method of Bomodeoxyuridine (BrdU) quantification was carried out according to the Standard Operational Protocols Nos. 10 and 12 of the Laboratory of Clinical Cytology of the Faculty of Pharmaceutical Sciences of Ribeirao Preto (FCFRP -USP). In this method, for the BrdU quantification, cells were plated in 96-well sterile plates for cell culture with a cap at the density of 2 × 10^4 cells/well for treatments lasting 24 h and 1 × 10^4 cells/well for treatments with 48 h or more, completing the volume to 100 µL with culture medium. The plates were incubated for 8-16 h in an incubator at 37° C. and 5% CO2. The next day, the treatments were prepared in culture medium, applying 200 µL/well at the desired concentration, and the plates were placed in an incubator at 37° C. and 5% CO2 for the duration of treatment. After the treatment period, 20 µL/well of a BrdU-labeling was added and incubated at 37° C. and 5% CO2 for 2.5 h. After incubation with BrdU labeling, the plates were stored at 2-4° C. up to 1 week. […] Substrate was developed for 15 minutes and reaction was stopped with HCl 6 M solution and read in a spectrophotometer at 495 nm with endpoint.
(§5) The calculation of cell proliferation was performed using the formula: […]
(§6) O.D.: optical density captured by spectrophotometer NOTE: The Basal O.D. is the one found in the blank wells. […]

zebrafish embryos = experiment: Tolerability in zebrafish embryos; type: in vivo; conditions: even at a dose 50,000 times higher than the in vitro MDAMB231 IC50 at 24 h
HDFa benign cell line = experiment: BrdU cellular proliferation, benign cells; type: cell-based; conditions: maximum time of exposure
Protocol: as §4, §5, §6

MDAMB231 cell line = experiment: Cell cycle progression (propidium iodide flow cytometry); type: cell-based; conditions: MDAMB231, 48 h, highest dosage
Protocol: For cell cycle progression method, cells were plated in 6-well sterile plates for cell culture with a cap at the density of 2.5 × 10^5 cells/well for treatments lasting 24 h or more, completing the volume with 1000 µL culture medium. The plates were incubated for 8-16 h in an incubator at 37° C. and 5% CO2. The next day, the treatments were prepared in culture medium, applying 2000 µL/well at the desired concentration, and the plates were placed in an incubator at 37° C. and 5% CO2 for the duration of treatment. After the treatment period, cells were collected in a conic 15 mL tube and washed with 1000 µL of PBS (1×). Cells were resuspended in 500 µL/tube of PBS (1×) and 4.5 mL of Ethanol 70°. Then, tubes were closed and kept at 2-4° C. for up to 2 months. Cells were washed with PBS (1×) and resuspended with 135 µL of PBS (1×). A solution of RnaseA at 100 µg/mL was added and incubated at RT for 30 minutes. After incubation, cells were labeled with 2 µL of Propidium Iodide at 100 µg/mL and read at the flow cytometer for size and DNA content.
In order to determine the effects of the peptide in cell cycle progression (MDAMB231 cell line), the Analysis of Variance (ANOVA) with Dunnet post-hoc test was applied to the significance of 5% in GraphPad Prism software version 6.0.

CSCC[C@H](N)C(=O)N[C@@H](Cc1ccccc1)C(=O)N[C@@H](Cc1ccc(O)cc1)C(=O)N1CCC[C@H]1C(=O)N[C@@H](CC(=O)O)C(=O)N[C@@H](CO)C(=O)N[C@@H](CCCNC(=N)N)C(=O)N[C@@H](CS)C(=O)N[C@@H](CCCNC(=N)N)C(=O)NCC(=O)N1CCC[C@H]1C(=O)N[C@@H](CO)C(=O)N[C@@H](CCC(=O)O)C(=O)N[C@H](C(=O)O)[C@@H](C)O [3-NAntC, [H]-MFYPDSRCRGPSET-[OH]]
activity with and without the autophagy inhibitor 3-MA (MTT) (MDAMB231 cells [1]): remains the same | compared efficacy in decreasing MDAMB231 cells' viability (MTT, FIG. 13/14) ([2]; MDAMB231, SEQ IDs 2-10 compared to SEQ ID 1): highest antitumor effect | antitumor effect compared to Cisplatin (MTT) ([2]; MDAMB231, as early as 48 h of treatment): exceeds the antitumor effect of Cisplatin | effect on viability of benign skin cells (MTT) [3]: not decreasing the viability | number of tumor cells compared to no treatment [4]: lower numbers | number of vesicles compared to no treatment [4]: greater number of vesicles | decrease of proliferation rate (BrdU) (MDAMB231 cells [5]): 33% | embryo survival (zebrafish embryos): high embryo survival | tolerability in zebrafish embryos (zebrafish embryos): well tolerated | effect on proliferation of benign cells (BrdU) (HDFa benign cell line): did not alter the proliferation | decrease in cells in G0/G1 (MDAMB231 cell line): 8.72% | increase of G2/M percentage (MDAMB231 cell line): 8.08%
